Values of other authors, collected in patent US20160022623A1, “COMPOSITION AND USE” (THE UNIVERSITY OF NOTTINGHAM, priority 2013, published 2016).

Columns and labels:
[1] = 24 weeks
[2] = compared to control (euglycaemic hyperinsulinaemia)
[3] = morning following the clamp, overnight fast

For `C[N+](C)(C)C[C@H](O)CC(=O)[O-]` [L-carnitine], the “Increase in muscle total carnitine content compared to carbohydrate feeding alone” value ([1]; 1.36 g L-carnitine with 80 g carbohydrate beverage twice daily) is given as 30%, the “Reduction in muscle glycogen utilisation” value ([1]; low intensity exercise (50% VO2max)) is given as 50% and the “Increase in muscle free carnitine availability” value ([1]; low intensity exercise (50% VO2max), vs Control) is given as 80%. The “Decrease in insulin stimulated muscle PDC activation” value [2] was 30%, the “Decrease in muscle lactate accumulation” value [2] was 40% and the “Increase in skeletal muscle total carnitine content” value (intravenous infusion, 6 h clamp, at rest) was 15%. The “Increase in muscle glycogen content” value [3] was 30% and the “Increase in muscle long-chain acyl-CoA content” value [3] was 40%.
